Legend:
[1] = molecular target: His-tagged KRAS G12D protein (Homo sapiens, UniProt P01116, G12D); assay: KRAS G12D TR-FRET Assay; format: binding; settings: biotinylated KRPep-2d substrate, 10 μM GDP;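 further: europium anti-His antibody paired with streptavidin-d2 as FRET partners, initial 30 min incubation, then peptide 1 h and detection reagents 1 h, all at room temperature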
[2] = molecular target: GDP-bound KRAS protein (aa 1-169), containing both G12D and C118A amino acid substitutions (Homo sapiens, UniProt P01116, C118A/G12D); assay: KRAS G12D Coupled Nucleotide Exchange Assay; format: biochemical; settings: 2 h compound pre-incubation; SOS-mediated nucleotide exchange, cRAF AlphaScreen readout;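 further: IC50 obtained by fitting the AlphaScreen signal with a four-parameter logistic curve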
[3] = tested on: Phosphorylation of ERK1/2 in A-427 cells; assay: Phospho-ERK1/2 MSD Assay; format: cell-based; settings: Homo sapiens, A-427, 2 h, 2 h compound treatment, read-out: pERK (A427 cells) IC50
How it was run: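 ERK1/2 phosphorylation measured by Meso Scale whole-cell lysate assay after A-427 cells were exposed to a titration of compound for 2 h at 37 °C.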

Sequence of GDP-bound KRAS protein (aa 1-169), containing both G12D and C118A amino acid substitutions (P01116 1-169 isoform P01116-2 G12D/C118A): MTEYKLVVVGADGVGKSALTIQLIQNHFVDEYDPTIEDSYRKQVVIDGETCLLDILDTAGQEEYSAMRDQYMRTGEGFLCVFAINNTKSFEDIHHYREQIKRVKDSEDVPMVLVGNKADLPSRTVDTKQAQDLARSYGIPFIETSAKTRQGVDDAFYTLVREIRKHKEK
Sequence of His-tagged KRAS G12D protein (P01116 1-188 isoform P01116-2 G12D): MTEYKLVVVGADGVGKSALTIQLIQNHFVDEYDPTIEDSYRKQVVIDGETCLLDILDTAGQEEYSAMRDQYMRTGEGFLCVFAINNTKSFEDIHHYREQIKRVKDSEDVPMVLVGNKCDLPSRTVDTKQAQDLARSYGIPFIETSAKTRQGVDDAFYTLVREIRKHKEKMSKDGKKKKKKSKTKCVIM

Structure (SMILES) | IC50 [1] [nM] | Avg 2 h Coupled Exchange IC50 [2] [nM] | IC50 [3] [nM]
CN1CCCCC1CCOc1nc(N2CCNCC2)c2cc(Cl)c(-c3cccc4sc(N)nc34)c(F)c2n1 (stereo not drawn) [Example 60, 4-(6-chloro-8-fluoro-2-(2-(1-methylpiperidin-2-yl)ethoxy)-4-(piperazin-1-yl)quinazolin-7-yl)benzo[d] thiazol-2-amine] | 480 | 343 | > 25000
CN1CCC[C@H]1CCOc1nc(N2CCNCC2)c2cc(Cl)c(-c3cccc4sc(N)nc34)c(F)c2n1 [Example 61, 4-(6-chloro-8-fluoro-2-(2-((S)-1-methyl-pyrrolidin-2-yl)ethoxy)-4-(piperazin-1-yl)quinazolin-7-yl)benzo[d] thiazol-2-amine] | 476 | 361 | > 25000
Nc1nc2c(-c3c(Cl)cc4c(N5CCNCC5)nc(OC[C@@H]5CCCN5)nc4c3F)cccc2s1 [Example 72, 4-(6-chloro-8-fluoro-4-(piperazin-1-yl)-2-(((S)-pyrrolidin-2-yl)methoxy)quinazolin-7-yl)benzo[d] thiazol-2-amine] | 112 | 63 | > 10000
C[C@@]1(COc2nc(N3CCNCC3)c3cc(Cl)c(-c4cccc5sc(N)nc45)c(F)c3n2)CCCN1 [Example 73, 4-(6-chloro-8-fluoro-2-(((S)-2-methyl-pyrrolidin-2-yl)methoxy)-4-(piperazin-1-yl)quinazolin-7-yl)benzo[d] thiazol-2-amine] | 60 | 36 | > 10000
C[C@]1(COc2nc(N3CCNCC3)c3cc(Cl)c(-c4cccc5sc(N)nc45)c(F)c3n2)CCCN1 [Example 74, 4-(6-chloro-8-fluoro-2-(((R)-2-methyl-pyrrolidin-2-yl)methoxy)-4-(piperazin-1-yl)quinazolin-7-yl)benzo[d] thiazol-2-amine] | 228 | 122 | > 10000
Nc1nc2c(-c3c(Cl)cc4c(N5[C@@H]6CNC[C@H]5COC6)nc(OC[C@@]56CCCN5C[C@H](F)C6)nc4c3F)ccc(F)c2s1 [Example 122, 4-(4-((1R,5S)-3-Oxa-7,9-diazabicyclo[3.3.1]nonan-9-yl)-6-chloro-8-fluoro-2-(((2R,7aS)-2-fluorotetrahydro-1H-pyrrolizin-7a(5H)-yl)methoxy)quinazolin-7-yl)-7-fluorobenzo[d]thiazol-2-amine] | 4 | 3 | 167
Nc1nc2c(-c3c(Cl)cc4c(N5[C@@H]6CC[C@H]5CNC6)nc(OC[C@]56CCCN5C[C@H](F)C6)nc4c3F)ccc(F)c2s1 [Example 123, 4-(4-((1R,5S)-3,8-diazabicyclo[3.2.1]octan-8-yl)-6-chloro-8-fluoro-2-(((2R,7aR)-2-fluorotetrahydro-1H-pyrrolizin-7a(5H)-yl)methoxy)quinazolin-7-yl)-7-fluorobenzo[d]thiazol-2-amine] | 5 | 6 | 69
Nc1nc2c(-c3c(Cl)cc4c(N5[C@@H]6CNC[C@H]5COC6)nc(OC[C@]56CCCN5C[C@H](F)C6)nc4c3F)ccc(F)c2s1 [Example 124, 4-(4-((1R,5S)-3-oxa-7,9-diazabicyclo[3.3.1]nonan-9-yl)-6-chloro-8-fluoro-2-(((2R,7aR)-2-fluorotetrahydro-1H-pyrrolizin-7a(5H)-yl)methoxy)quinazolin-7-yl)-7-fluorobenzo[d]thiazol-2-amine] | 7 | 6 | 287
CN1C[C@H](F)C[C@H]1COc1nc(N2[C@@H]3CNC[C@H]2COC3)c2cc(Cl)c(-c3ccc(F)c4sc(N)nc34)c(F)c2n1 [Example 125, 4-(4-((1R,5S)-3-oxa-7,9-diazabicyclo[3.3.1]nonan-9-yl)-6-chloro-8-fluoro-2-(((2S,4R)-4-fluoro-1-methylpyrrolidin-2-yl)methoxy)quinazolin-7-yl)-7-fluorobenzo[d]thiazol-2-amine] | 6 | 9 | 369
Nc1nc2c(-c3c(Cl)cc4c(N5[C@@H]6CNC[C@H]5COC6)nc(OCC56CCCN5CC(F)(F)C6)nc4c3F)ccc(F)c2s1 (stereo partly drawn) [Example 126, 4-(4-((1R,5S)-3-oxa-7,9-diazabicyclo[3.3.1]nonan-9-yl)-6-chloro-2-((2,2-difluorotetrahydro-1H-pyrrolizin-7a(5H)-yl)methoxy)-8-fluoroquinazolin-7-yl)-7-fluorobenzo[d]thiazol-2-amine] | 12 | 10 | 896
Nc1nc2c(-c3cc4nc(OC[C@@]56CCCN5C[C@H](F)C6)nc(N5C[C@H]6CC[C@@H](C5)N6)c4cc3F)ccc(F)c2s1 [Example 132, 4-(4-((1R,5S)-3,8-diazabicyclo[3.2.1]octan-3-yl)-6-fluoro-2-(((2R,7aS)-2-fluorotetrahydro-1H-pyrrolizin-7a(5H)-yl)methoxy)quinazolin-7-yl)-7-fluorobenzo[d]thiazol-2-amine] | 3 | 4 | 440
Nc1nc2c(-c3ccc4c(N5C[C@H]6CC[C@@H](C5)N6)nc(OC[C@@]56CCCN5C[C@H](F)C6)nc4c3)ccc(F)c2s1 [Example 133, 4-(4-((1R,5S)-3,8-diazabicyclo[3.2.1]octan-3-yl)-2-(((2R,7aS)-2-fluorotetrahydro-1H-pyrrolizin-7a(5H)-yl)methoxy)quinazolin-7-yl)-7-fluorobenzo[d]thiazol-2-amine] | 74 | 6 | 4440
Nc1nc2c(-c3ccc4c(N5[C@@H]6CC[C@H]5CNC6)nc(OC[C@@]56CCCN5C[C@H](F)C6)nc4c3)ccc(F)c2s1 [Example 135, 4-(4-((1R,5S)-3,8-diazabicyclo[3.2.1]octan-8-yl)-2-(((2R,7aS)-2-fluorotetrahydro-1H-pyrrolizin-7a(5H)-yl)methoxy)quinazolin-7-yl)-7-fluorobenzo[d]thiazol-2-amine] | 207 | 64 | > 10000
Nc1nc2c(-c3c(Cl)cc4c(N5C[C@H]6CC[C@@H](C5)N6)nc(OC[C@]56CCCN5C[C@H](F)C6)nc4c3F)ccc(F)c2s1 [Example 136, 4-(4-((1R,5S)-3,8-diazabicyclo[3.2.1]octan-3-yl)-6-chloro-8-fluoro-2-(((2R,7aR)-2-fluorotetrahydro-1H-pyrrolizin-7a(5H)-yl)methoxy)quinazolin-7-yl)-7-fluorobenzo[d]thiazol-2-amine] | 1 | 1 | 33
Nc1nc2c(-c3c(Cl)cc4c(N5C[C@H]6CC[C@@H](C5)N6)nc(OC[C@@]56CCCN5C[C@H](F)C6)nc4c3F)ccc(F)c2s1 [Example 137, 4-(4-((1R,5S)-3,8-diazabicyclo[3.2.1]octan-3-yl)-6-chloro-8-fluoro-2-(((2R,7aS)-2-fluorotetrahydro-1H-pyrrolizin-7a(5H)-yl)methoxy)quinazolin-7-yl)-7-fluorobenzo[d]thiazol-2-amine] | 3 | 2 | 8
Nc1nc2c(-c3cc4nc(OC[C@@]56CCCN5C[C@H](F)C6)nc(N5[C@@H]6CC[C@H]5CNC6)c4cc3F)ccc(F)c2s1 [Example 138, 4-(4-((1R,5S)-3,8-diazabicyclo[3.2.1]octan-8-yl)-6-fluoro-2-(((2R,7aS)-2-fluorotetrahydro-1H-pyrrolizin-7a(5H)-yl)methoxy)quinazolin-7-yl)-7-fluorobenzo[d]thiazol-2-amine] | 30 | 11 | 1700
CN1CCC[C@H]1COc1nc(C2=CCNCC2)c2cc(Cl)c(-c3cccc4sc(N)nc34)c(F)c2n1 [Example 144, 4-(6-chloro-8-fluoro-2-(((S)-1-methylpyrrolidin-2-yl)methoxy)-4-(1,2,3,6-tetrahydropyridin-4-yl)quinazolin-7-yl)benzo[d]thiazol-2-amine] | 79 | 37 | 2300
CN1CCC[C@H]1COc1nc(C2=CCNC2)c2cc(Cl)c(-c3cccc4sc(N)nc34)c(F)c2n1 [Example 148, 4-(6-chloro-4-(2,5-dihydro-1H-pyrrol-3-yl)-8-fluoro-2-(((S)-1-methylpyrrolidin-2-yl)methoxy)quinazolin-7-yl)benzo[d]thiazol-2-amine] | 56 | 74 | 3410
C=Cc1cc2c(N3CCNCC3)nc(OC[C@@H]3CCCN3C)nc2c(F)c1-c1cccc2sc(N)nc12 [Example 149, 4-(8-fluoro-2-(((S)-1-methylpyrrolidin-2-yl)methoxy)-4-(piperazin-1-yl)-6-vinylquinazolin-7-yl)benzo[d]thiazol-2-amine] | 121 | 25 | 6930
C=Cc1cc2c(N3C[C@H]4CC[C@@H](C3)N4)nc(OC[C@@]34CCCN3C[C@H](F)C4)nc2c(F)c1-c1ccc(F)c2sc(N)nc12 [Example 150, 4-(4-((1R,5S)-3,8-diazabicyclo[3.2.1]octan-3-yl)-8-fluoro-2-(((2R,7aS)-2-fluorotetrahydro-1H-pyrrolizin-7a(5H)-yl)methoxy)-6-vinylquinazolin-7-yl)-7-fluorobenzo[d]thiazol-2-amine] | 3 | 6 | 11

From US20250059179A1, “Heterocyclic Compounds and Methods of Use” (AMGEN INC., priority 2021, published 2025)
